Data reported in the NIST ThermoML archive (doi:10.1016/j.tca.2004.11.015).

Conditions: 101.33 kPa, Liquid, Vibrating tube method

NCCO [2-aminoethan-1-ol]
Conditions	mass density [kg/m3]
281.15 K	1025.55
283.15 K	1023.99
285.15 K	1022.42
287.15 K	1020.84
289.15 K	1019.26
291.15 K	1017.68
293.15 K	1016.1
295.15 K	1014.52
297.15 K	1012.94
299.15 K	1011.35
301.15 K	1009.76
303.15 K	1008.17
305.15 K	1006.58
307.15 K	1004.99
309.15 K	1003.4
311.15 K	1001.8
313.15 K	1000.21
315.15 K	998.6
317.15 K	997
319.15 K	995.4
321.15 K	993.79
323.15 K	992.19
325.15 K	990.58
327.15 K	988.96
329.15 K	987.34
331.15 K	985.72
333.15 K	984.1
335.15 K	982.48
337.15 K	980.85
339.15 K	979.21
341.15 K	977.58
343.15 K	975.94
345.15 K	974.3
347.15 K	972.65
349.15 K	970.99
351.15 K	969.34
353.15 K	967.68

CO [methanol]
Conditions	mass density [kg/m3]
283.15 K	800.67
288.15 K	795.99
293.15 K	791.29
298.15 K	786.58
303.15 K	781.86
308.15 K	777.1
313.15 K	772.32
318.15 K	767.52
323.15 K	762.67
328.15 K	757.77
333.15 K	752.83
